The values below come from US5204352A, “Compounds exhibiting anti-parasitic activity and a method for their use” (The United States of America as represented by the …, priority 1987, dated 1993).

Each structure is given as a SMILES string.

Series [1] has as its system Trypanosoma rhodesiense. To be noted: previously known bis-amidine and bis-guanylhydrazones; cited from earlier work.
A short description of the next series: in vivo. Also on record: species or system mice. Conditions: mouse, sc. The procedure: The preferred mode of administration of these compounds is subcutaneously. With subcutaneous administration, however, many of the compounds show lethal toxicity at very high dosage amounts. Thus, it is also possible to administer these compounds peritoneally. Compounds which are subcutaneously active are generally peritoneally active at higher doses. Further, none of the compounds administered peritoneally have shown lethal toxicity at dosages up to 400 mg/kg.
The compounds of the present invention were evaluated biologically in vivo with groups of 5 mice at various dose levels. Unless otherwise indicated, the data are for subcutaneous administration. Dose levels marked with an asterisk are for peritoneal administration in a HEC+T medium. In addition, Table 2 present results of peritoneal administration with substituted quanylhydrazones. The biological evaluation was done according to a standard protocol based on the method described by Rane et al., Amer. J. Trop. Med Hyg. 25:395 (1976).

Series [2] deals with Trypanosoma rhodesiense. In words: In vivo trypanocidal activity in infected mice (protocol based on Rane et al.). Conditions: for Trypanocidal activity, cures / Increase in survival: subcutaneous; for Activity at dosage (C = Cures): peritoneal (Table 2). In outline:
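Groups of 5 mice dosed at various levels, subcutaneously unless marked; asterisked doses given intraperitoneally in HEC+T medium. Standard protocol per Rane et al. (1976).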

Regarding `N=C(N)c1cccc(NC(=O)Nc2cccc(C(=N)N)c2)c1` [aminocarbilide], the Trypanocidal activity result in the series on Trypanosoma rhodesiense [1] is given as “show trypanocidal activity”.

In “in vivo”, `Cc1ccc2n(c1)cc(-c1ccc(C=NNC3=NCCCN3)cc1)[n+]2C` [2-(3,4,5,6-tetrahydropyrimidyI)hydrazone of 1,6-dimethyl-2-(4'-formylphenyl)imidazo[1,2-a]-pyridinium bromide] registered an MTD of approximately 100 mg/kg.

Regarding `CC(=NNC(=N)N)c1cccc(C(C)=NNC(=N)N)c1` [m-diacetylbenzene-bis-guanylhydrazone], the Trypanocidal activity entry in the series on Trypanosoma rhodesiense [1] was “show trypanocidal activity”.

Take `N=C(N)c1ccc(N=NNc2ccc(C(=N)N)cc2)cc1` [berenil]: in the series with Trypanosoma rhodesiense [1], the Trypanocidal activity result is “show trypanocidal activity”.

As for `N=C(N)c1ccc(OCCCCCOc2ccc(C(=N)N)cc2)cc1` [pentamidine], the Trypanocidal activity result in the series with Trypanosoma rhodesiense [1] is on record as “show trypanocidal activity”.

Regarding `N=C(N)c1ccc(-c2cc3ccc(C(=N)N)cc3[nH]2)cc1` [DAPI, 2-phenylindole-5-4'-bis-carboxamidine], the Trypanocidal activity entry in the series with Trypanosoma rhodesiense [1] is recorded as “show trypanocidal activity”.

With `CN=C(N)NN=Cc1ccc(-c2cn3ccccc3[n+]2C)cc1` [BK46200], the “Trypanocidal activity, cures” value in the series with Trypanosoma rhodesiense [2] (0.85-1.66 mg/kg, (M)) is 5/5; in the series with Trypanosoma rhodesiense [2] (3.33-6.65 mg/kg, (F)), 5/5.

As to `C[n+]1c(-c2ccc(C=NNc3ncn[nH]3)cc2)cn2ccsc21` [BK2403S], the Increase in survival is 5.0 days in the series with Trypanosoma rhodesiense [2] (6.65 mg/kg); 5.0 days with Trypanosoma rhodesiense [2] (13.3 mg/kg); 7.3 days in the series with Trypanosoma rhodesiense [2] (26.5 mg/kg); 12.5 days in the series with Trypanosoma rhodesiense [2] (53 mg/kg); 7.7 days with Trypanosoma rhodesiense [2] (106 mg/kg); 5.0 days in the series with Trypanosoma rhodesiense [2] (212 mg/kg). In addition, the “Trypanocidal activity, cures” value in the series with Trypanosoma rhodesiense [2] (6.65 mg/kg) is 4/5; in the series on Trypanosoma rhodesiense [2] (13.3 mg/kg), 6/10; in the series with Trypanosoma rhodesiense [2] (26.5 mg/kg), 12/15; in the series with Trypanosoma rhodesiense [2] (53 mg/kg), 3/5; with Trypanosoma rhodesiense [2] (106 mg/kg) it was 7/10; in the series with Trypanosoma rhodesiense [2] (212 mg/kg), 3/5.

As for `CC(=O)Nc1ccc(-c2cn3c4ccccc4ccc3[n+]2C)cc1` [BJ83244], in the series on Trypanosoma rhodesiense [2] (212 mg/kg), the Increase in survival was 8.4 days and the “Trypanocidal activity, cures” value was 3/5.

Regarding `Cc1ccn2cc(-c3ccc(C=NNC(=N)N)cc3)[n+](C)c2c1` [BK46219], in the series with Trypanosoma rhodesiense [2] (26.5 mg/kg), the Increase in survival worked out at 10.0 days and the “Trypanocidal activity, cures” value was 8/10.

Turning to `CCN(CC)CCN=C(N)NN=Cc1ccc(-c2cn3ccccc3[n+]2C)cc1` [BK46175], in the series with Trypanosoma rhodesiense [2] (0.83 mg/kg, (F)), the Increase in survival came out at 3.3 days and the “Trypanocidal activity, cures” value was 2/5. Further, the Increase in survival in the series with Trypanosoma rhodesiense [2] (0.83 mg/kg, M) came out at 6.3 days.

Turning to `C[n+]1c(-c2ccc(C=NNc3nccs3)cc2)cn2ccccc21` [BK50302], the Increase in survival is on record as 2.0 days in the series on Trypanosoma rhodesiense [2] (0.2 mg/kg) and 15.0 days in the series with Trypanosoma rhodesiense [2] (0.8 mg/kg). Besides, the results for the “Trypanocidal activity, cures” value in the series on Trypanosoma rhodesiense [2] (0.2 mg/kg), in the series with Trypanosoma rhodesiense [2] (0.4 mg/kg) and in the series on Trypanosoma rhodesiense [2] (0.8 mg/kg) were 3/5, 5/5 and 4/5, respectively. In addition, the “Activity at dosage (C = Cures)” value in the series on Trypanosoma rhodesiense [2] (106 mg/kg), in the series on Trypanosoma rhodesiense [2] (212 mg/kg) and in the series with Trypanosoma rhodesiense [2] (424 mg/kg) was “INAC” in each case.

With `C[n+]1c(-c2ccc(-c3n[nH]c(N)n3)cc2)cn2ccsc21` [BK42720], in the series with Trypanosoma rhodesiense [2] (26.5 mg/kg), the “Trypanocidal activity, cures” value was 5/5.
